Like-named read-outs stand apart in the source and are kept apart here. Where no end group is shown, it is not given here.
Experiments:
[1] = clinical dose, human volunteers; cited from earlier work
[2] = in 4 hours; cited from earlier work
[3] = cited from earlier work
[4] = test system: A. baumannii (P1270); test: Radiolabeled phosphate leakage radioassay; format: cell-based; settings: in 60 min; Ω76 32 mg/liter, colistin 5 mg/liter
[5] = test system: BALB/c mice; test: Single-dose in vivo toxicity, LD50 determination; design: species or system mouse
[6] = test system: A. baumannii (P1270); test: Time-kill curves in ex vivo whole human blood; settings: in 60 min; Ω76 32 mg/liter, colistin 5 mg/liter
[7] = clinical dose, mouse serum; cited from earlier work
[8] = cited from earlier work; remark: listed apart in the source
[9] = test system: BALB/c mice; test: Multidose cumulative toxicity, mouse survival; format: in vivo; settings: repeated maximum sublethal doses
[10] = test system: BALB/c mice; test: Kidney and liver histopathology after multidose treatment; format: in vivo, mouse; settings: after 11 maximum sublethal doses
[11] = Single-dose in vivo toxicity, LD50 determination; design: species or system mouse; settings: BALB/c, mouse, in vivo, ip
[12] = test system: panel of 30 type cultures; test: I_score ranking from the MICs of 30 type cultures; settings: number of cultures inhibited with the lowest MIC among the five peptides
[13] = young patient cohort, Walter Reed Army Medical Center

## C[C@@H](O)[C@H]1C(=O)N2C(C(=O)O)=C(S[C@@H]3CN[C@H](C(=O)N(C)C)C3)[C@H](C)[C@H]12 [meropenem]
[1]
  time above MIC concentrations in serum: 5 h
[2]
  CFU reduction: 100 fold

## melittin
[3]
  hemolytic properties: display hemolytic properties

## colistin
[4]
  intracellular phosphate lost: 25%
[5]; intraperitoneal, monitored 5 days, linear interpolation
  LD50 (median lethal dose): 30 mg/kg
[5]; intraperitoneal, single dose
  maximum sublethal dose: 16 mg/kg
[5]; single dose of 32 mg/kg
  mortality (mice): 3 of 5
[6]
  CFU reduction: 32 fold
[7]
  time above MIC concentrations in serum: 100 min
[8]; Korean elderly patient cohort, treated for ≥72 hours
  acute kidney injury: 54.6%
[8]; Turkish elderly patient cohort
  acute kidney injury: 46.1%
[8]; [13]
  acute kidney injury: 45%
  cessation of treatment due to nephrotoxicity: 21%
[9]
  mortality in mice: 50%
[10]
  kidney histology: extensive renal damage
  liver histology: displaying no damage

## gramicidin S
[3]
  hemolytic properties: display hemolytic properties

## H-GIGKFLKKAKKFGKAFVKILKK-NH2 [Pexiganan]
[11]
  LD50 at 5 days: 60 mg/kg
[9]
  mortality in mice: 100%

## lactoferrampin
[3]
  hemolytic properties: display hemolytic properties

## IKALGKKLRKGKKKIGKKVK [Ω93]
[12]
  I_score: 1

From publication PMC6656545 (Science Advances, 2019)
